Several values for one entry are separate records, joined by “and”; a condition that tells them apart may be missing. Equal entries are not always repeated. Structures can show the parent of a compound that is named as a salt. Where two headings read alike, the source gives them in different places. Marks after values point to notes of the source that are not given here.
How the values were obtained:
[1] = Solubility in water and in ethanol at room temperature (UV-Visible spectroscopy); assay type: physicochemical
Excerpt: The molar absorptivity had been previously determined in acetonitrile. The same molar absorptivity was considered for the determination in water and in ethanol. Solubility in water certainly depends on pH. The residual solid obtained by filtration of the suspension was immediately analyzed with Raman spectroscopy.

[2] = Bioavailability of crystalline Forms (I) and (II) in dogs; assay type: in vivo, Beagle dogs
Procedure: A study was carried out on six Beagle dogs to evaluate the bioavailability of crystalline Forms (I) and (II).
Blood samples were taken at given times and plasma concentrations of lercanidipine were determined with a stereoselective analytical method HPLC-MS/MS, according to the following working conditions;
Lercanidipine was extracted from dog plasma by means of a liquid-liquid extraction with a mixture of n-hexane and ethyl ether. The dry residue of the organic phase was taken up with a mixture of methanol and water and a liquid-phase chromatographic separation (LC) was carried out; the two enantiomers of lercanidipine were separated on a CHIROBIOTIC V column (Vancomycin) (particle size […], column size 150 x 4.6 mm (ASTEC, NJ, USA)) and were detected with a mass spectrometer (MS/MS) by using an electrospray technique.
The analytical method was validated in a concentration range between 0.1 and 20 ng/ml of plasma for both enantiomers. The method has shown to be specific with an accuracy of 15%. The average concentrations of lercanidipine in the tables represent the sum of both enantiomers.

[3] = Hygroscopicity by DVS analysis; assay type: physicochemical; details: 25°C, whole RH range tested
Procedure: The hygroscopicity of both crystalline Forms (I) and (II) was measured with DVS analysis by means of a water absorption analyzer (SURFACE MEASUREMENT SYSTEM, Marion, Buckinghamshire, UK) according to the following working conditions: […]

[4] = Solubility in mixtures of water-ethanol at 25°C and 40°C; assay type: physicochemical; details: at both 25°C and 40°C
[5] = Relative bioavailability of Form (I) and Form (II) in man; assay type: in vivo
Procedure: Blood samples were taken at 15 points from time 0 to 24 h post-dosing and plasma concentrations of lercanidipine were determined with a stereoselective analytical method HPLC-MS/MS.

[6] = Dog 1, oral 3 mg/kg, hydrochloride, 3 mg/kg
[7] = Dog 2 (not included in mean), oral 3 mg/kg, hydrochloride, 3 mg/kg
[8] = Dog 3, oral 3 mg/kg, hydrochloride, 3 mg/kg
[9] = Dog 4, oral 3 mg/kg, hydrochloride, 3 mg/kg
[10] = Dog 5, oral 3 mg/kg, hydrochloride, 3 mg/kg
[11] = Mean (n=5, Dog 2 not included), oral 3 mg/kg, hydrochloride, 3 mg/kg

## COC(=O)C1=C(C)NC(C)=C(C(=O)OC(C)(C)CN(C)CCC(c2ccccc2)c2ccccc2)C1c1cccc([N+](=O)[O-])c1 (single isomer, unassigned) [Form (II), lercanidipine hydrochloride]
[1]
  Solubility compared with Form (I): less soluble than Form (I) in both solvents
[2]; [6]
  AUC0-t: 54.59 ng/h/mL
  Cmax: 18.46 ng/mL
  Tmax: 3.00 h
[2]; [7]
  AUC0-t: 119.77 ng/h/mL
  Cmax: 52.19 ng/mL
  Tmax: 1.50 h
[2]; [8]
  AUC0-t: 75.62 ng/h/mL
  Tmax: 1.50 h
[2]; [9]
  AUC0-t: 173.82 ng/h/mL
  Tmax: 4.00 h
[2]; [10]
  AUC0-t: 142.34 ng/h/mL
  Cmax: 55.38 ng/mL
  Tmax: 2.00 h
[2]; Dog 6, oral 3 mg/kg
  Tmax: 6.00 h
[2]; Dog 6, oral 3 mg/kg, hydrochloride, 3 mg/kg
  AUC0-t: 61.91 ng/h/mL
[2]; [11]
  AUC0-t: 104.68 ng/h/mL
  Cmax: 36.17 ng/mL
  Tmax: 3.00 h
[2]; Time 0 h, Dog 1, oral 3 mg/kg
  concentration in plasma of lercanidipine (S+R): 0.00 ng/mL
[2]; Time 0 h, Dog 2 (not included in mean), oral 3 mg/kg
  concentration in plasma of lercanidipine (S+R): 0.00 ng/mL
[2]; Time 0 h, Dog 3, oral 3 mg/kg
  concentration in plasma of lercanidipine (S+R): 0.00 ng/mL
[2]; Time 0 h, Dog 4, oral 3 mg/kg
  concentration in plasma of lercanidipine (S+R): 0.00 ng/mL
[2]; Time 0 h, Dog 5, oral 3 mg/kg
  concentration in plasma of lercanidipine (S+R): 0.00 ng/mL
[2]; Time 0 h, Dog 6, oral 3 mg/kg
  concentration in plasma of lercanidipine (S+R): 0.00 ng/mL
[2]; Time 0 h, Mean (Dog 2 not included), oral 3 mg/kg
  concentration in plasma of lercanidipine (S+R): 0.00 ng/mL
[2]; Time 0.5 h, Dog 1, oral 3 mg/kg, hydrochloride, 3 mg/kg
  concentration in plasma of lercanidipine (S+R): 0.00 ng/mL
[2]; Time 0.5 h, Dog 2 (not included in mean), oral 3 mg/kg, hydrochloride, 3 mg/kg, 30 min
  concentration in plasma of lercanidipine (S+R): 22.67 ng/mL
[2]; Time 0.5 h, Dog 4, oral 3 mg/kg
  concentration in plasma of lercanidipine (S+R): 0.00 ng/mL
[2]; Time 0.5 h, Dog 5, oral 3 mg/kg
  concentration in plasma of lercanidipine (S+R): 0.00 ng/mL
[2]; Time 0.5 h, Dog 6, oral 3 mg/kg
  concentration in plasma of lercanidipine (S+R): 0.00 ng/mL
[2]; Time 1 h, Dog 1, oral 3 mg/kg, hydrochloride, 3 mg/kg
  concentration in plasma of lercanidipine (S+R): 0.00 ng/mL
[2]; Time 1 h, Dog 2 (not included in mean), oral 3 mg/kg, hydrochloride, 3 mg/kg, 60 min
  concentration in plasma of lercanidipine (S+R): 52.13 ng/mL
[2]; Time 1 h, Dog 6, oral 3 mg/kg
  concentration in plasma of lercanidipine (S+R): 0.00 ng/mL
[2]; Time 1 h, Mean (Dog 2 not included), oral 3 mg/kg, hydrochloride, 3 mg/kg, 60 min
  concentration in plasma of lercanidipine (S+R): 5.08 ng/mL
[2]; Time 1.5 h, Dog 1, oral 3 mg/kg, hydrochloride, 3 mg/kg, 90 min
  concentration in plasma of lercanidipine (S+R): 0.23 ng/mL
[2]; Time 1.5 h, Dog 2 (not included in mean), oral 3 mg/kg, hydrochloride, 3 mg/kg, 90 min
  concentration in plasma of lercanidipine (S+R): 52.19 ng/mL
[2]; Time 1.5 h, Dog 3, oral 3 mg/kg, hydrochloride, 3 mg/kg, 90 min
  concentration in plasma of lercanidipine (S+R): 19.78 ng/mL
[2]; Time 1.5 h, Dog 5, oral 3 mg/kg, hydrochloride, 3 mg/kg, 90 min
  concentration in plasma of lercanidipine (S+R): 32.69 ng/mL
[2]; Time 1.5 h, Mean (Dog 2 not included), oral 3 mg/kg, hydrochloride, 3 mg/kg, 90 min
  concentration in plasma of lercanidipine (S+R): 18.32 ng/mL
[2]; Time 2 h, Dog 2 (not included in mean), oral 3 mg/kg, hydrochloride, 3 mg/kg, 120 min
  concentration in plasma of lercanidipine (S+R): 35.45 ng/mL
[2]; Time 2 h, Dog 3, oral 3 mg/kg, hydrochloride, 3 mg/kg, 120 min
  concentration in plasma of lercanidipine (S+R): 17.81 ng/mL
[2]; Time 2 h, Dog 4, oral 3 mg/kg, hydrochloride, 3 mg/kg, 120 min
  concentration in plasma of lercanidipine (S+R): 38.10 ng/mL
[2]; Time 2 h, Dog 5, oral 3 mg/kg, hydrochloride, 3 mg/kg, 120 min
  concentration in plasma of lercanidipine (S+R): 55.38 ng/mL
[2]; Time 2 h, Dog 6, oral 3 mg/kg, hydrochloride, 3 mg/kg, 120 min
  concentration in plasma of lercanidipine (S+R): 10.19 ng/mL
[2]; Time 2 h, Mean (Dog 2 not included), oral 3 mg/kg, hydrochloride, 3 mg/kg, 120 min
  concentration in plasma of lercanidipine (S+R): 25.82 ng/mL
[2]; Time 3 h, Dog 1, oral 3 mg/kg, hydrochloride, 3 mg/kg, 180 min
  concentration in plasma of lercanidipine (S+R): 18.46 ng/mL
[2]; Time 3 h, Dog 2 (not included in mean), oral 3 mg/kg, hydrochloride, 3 mg/kg, 180 min
  concentration in plasma of lercanidipine (S+R): 17.43 ng/mL
[2]; Time 3 h, Dog 3, oral 3 mg/kg, hydrochloride, 3 mg/kg, 180 min
  concentration in plasma of lercanidipine (S+R): 15.80 ng/mL
[2]; Time 3 h, Mean (Dog 2 not included), oral 3 mg/kg, hydrochloride, 3 mg/kg, 180 min
  concentration in plasma of lercanidipine (S+R): 23.46 ng/mL
[2]; Time 4 h, Dog 1, oral 3 mg/kg, hydrochloride, 3 mg/kg, 240 min
  concentration in plasma of lercanidipine (S+R): 14.83 ng/mL
[2]; Time 4 h, Dog 2 (not included in mean), oral 3 mg/kg, hydrochloride, 3 mg/kg, 240 min
  concentration in plasma of lercanidipine (S+R): 5.17 ng/mL
[2]; Time 4 h, Dog 4, oral 3 mg/kg, hydrochloride, 3 mg/kg, 240 min
  concentration in plasma of lercanidipine (S+R): 52.64 ng/mL
[2]; Time 4 h, Dog 6, oral 3 mg/kg, hydrochloride, 3 mg/kg, 240 min
  concentration in plasma of lercanidipine (S+R): 13.24 ng/mL
[2]; Time 4 h, Mean (Dog 2 not included), oral 3 mg/kg, hydrochloride, 3 mg/kg, 240 min
  concentration in plasma of lercanidipine (S+R): 23.69 ng/mL
[2]; Time 6 h (last sampling time), Mean (Dog 2 not included), oral 3 mg/kg, hydrochloride, 3 mg/kg, 360 min
  concentration in plasma of lercanidipine (S+R): 10.9 ± 6.8 ng/mL and 10.89 ng/mL
[2]; Time 6 h, Dog 1, oral 3 mg/kg, hydrochloride, 3 mg/kg, 360 min
  concentration in plasma of lercanidipine (S+R): 8.05 ng/mL
[2]; Time 6 h, Dog 2 (not included in mean), oral 3 mg/kg, hydrochloride, 3 mg/kg, 360 min
  concentration in plasma of lercanidipine (S+R): 4.50 ng/mL
[2]; Time 6 h, Dog 3, oral 3 mg/kg, hydrochloride, 3 mg/kg, 360 min
  concentration in plasma of lercanidipine (S+R): 3.62 ng/mL
[2]; Time 6 h, Dog 4, oral 3 mg/kg, hydrochloride, 3 mg/kg, 360 min
  concentration in plasma of lercanidipine (S+R): 17.46 ng/mL
[2]; Time 6 h, Dog 5, oral 3 mg/kg, hydrochloride, 3 mg/kg, 360 min
  concentration in plasma of lercanidipine (S+R): 6.76 ng/mL
[2]; Time 6 h, Dog 6, oral 3 mg/kg, hydrochloride, 3 mg/kg, 360 min
  concentration in plasma of lercanidipine (S+R): 18.56 ng/mL
[2]; dog, plasma, po, 3 mg/kg, Dog 3, read-out: Cmax
  Cmax: 19.8 ng/mL
[2]; dog, plasma, po, 3 mg/kg, Dog 4, read-out: Cmax
  Cmax: 52.6 ng/mL
[2]; dog, plasma, po, 3 mg/kg, Dog 6, read-out: Cmax
  Cmax: 18.6 ng/mL
[2]; dog, plasma, po, 3 mg/kg, Time 0.5 h, Dog 3, read-out: concentration in plasma of lercanidipine (S+R)
  concentration at 0.5 h: 6.99 ng/mL
[2]; dog, plasma, po, 3 mg/kg, Time 0.5 h, Mean (Dog 2 not included), read-out: concentration in plasma of lercanidipine (S+R)
  concentration at 0.5 h: 1.4 ng/mL
[2]; dog, plasma, po, 3 mg/kg, Time 1 h, Dog 3, read-out: concentration in plasma of lercanidipine (S+R)
  concentration at 1 h: 16.6 ng/mL
[2]; dog, plasma, po, 3 mg/kg, Time 1 h, Dog 4, read-out: concentration in plasma of lercanidipine (S+R)
  concentration at 1 h: 5.5 ng/mL
[2]; dog, plasma, po, 3 mg/kg, Time 1 h, Dog 5, read-out: concentration in plasma of lercanidipine (S+R)
  concentration at 1 h: 3.28 ng/mL
[2]; dog, plasma, po, 3 mg/kg, Time 1.5 h, Dog 4, read-out: concentration in plasma of lercanidipine (S+R)
  concentration at 1.5 h: 35.4 ng/mL
[2]; dog, plasma, po, 3 mg/kg, Time 1.5 h, Dog 6, read-out: concentration in plasma of lercanidipine (S+R)
  concentration at 1.5 h: 3.49 ng/mL
[2]; dog, plasma, po, 3 mg/kg, Time 2 h, Dog 1, read-out: concentration in plasma of lercanidipine (S+R)
  concentration at 2 h: 7.63 ng/mL
[2]; dog, plasma, po, 3 mg/kg, Time 3 h, Dog 4, read-out: concentration in plasma of lercanidipine (S+R)
  concentration at 3 h: 28.4 ng/mL
[2]; dog, plasma, po, 3 mg/kg, Time 3 h, Dog 5, read-out: concentration in plasma of lercanidipine (S+R)
  concentration at 3 h: 40.6 ng/mL
[2]; dog, plasma, po, 3 mg/kg, Time 4 h, Dog 3, read-out: concentration in plasma of lercanidipine (S+R)
  concentration at 4 h: 14.1 ng/mL
[2]; dog, plasma, po, 3 mg/kg, Time 4 h, Dog 5, read-out: concentration in plasma of lercanidipine (S+R)
  concentration at 4 h: 23.7 ng/mL
[3]
  mass variation: < 0.05%
[4]
  water concentration at which the maximum solubility is reached: 20%
[5]; 10 mg tablet
  bioequivalence to Form I: not bioequivalent to Form I
[5]; 10 mg tablet, single dose, geom. least square mean, 1440 min, hydrochloride
  AUC0-t: 10.36 ng·h/mL
[5]; 10 mg tablet, single dose, geom. least square mean, hydrochloride
  Cmax: 3.22 ng/mL
[5]; 10 mg tablet, single dose, median, hydrochloride
  Tmax: 2.50* h
[5]; Test = Form (II) tablet, Reference = Form (I) tablet (Zanedip)
  tmax Point Estimate (T/R), median difference: 0.75** h
